“And” between values parts separate entries of the source, which are not always exact repeats. Equal entries are not always repeated. Where two headings read alike, the source gives them in different places.
How the values were obtained:
Type in all cases: in vivo
[1] = test system: Euphorbia heterophylla (poinsettia); assay: Greenhouse postemergence herbicidal effect on EPHHL; conditions: for Herbicidal Effects (% visual injury) EPHHL Obs: Ethephon 0 g/ha
Excerpt: (§1) Seeds of the desired test plant species were planted in a 90:10% v/v (volume/volume) mixture of PRO-MIX® BX (Premier Tech Horticulture, Quakertown, Pa., USA) and PROFILE® GREENS GRADE™ (Profile Products LLC, Buffalo Grove, Ill., USA) planting mixture, which typically has a pH of 5.2 to 6.2 and an organic matter content of at least 50 percent, in plastic pots with a surface area of 103.2 square centimeters (cm^2). In some aspects, to help ensure good germination and healthy plants, a fungicide treatment and/or other chemical or physical treatment was applied. The plants were grown for 7-36 days (d) in a greenhouse with an approximate 14-hour (h) photoperiod which was maintained at about 23° C. during the day and 22° C. during the night. Nutrients and water were added on a regular basis and supplemental lighting was provided with overhead metal halide 1000-Watt lamps as necessary. The plants were employed for testing when they reached the second or third true leaf stage.
(§2) Emulsifiable concentrates of each of each pyridine carboxylate herbicide (Compound A or Compound B) were prepared at 100 grams acid equivalent per liter (g ae/L). The emulsifiable concentrates also included a safener, cloquintocet-mexyl, at 120 grams active ingredient per liter (g ai/L). An aliquot of each emulsifiable concentrate was placed in a 25 mL glass vial and diluted with an aqueous mixture of 1.25% (v/v) ACTIROB® B esterified rapeseed oil (Bayer Crop Science, Research Triangle Park, N.C., USA) or MSO® Concentrate with LECI-TECH® methylated soybean oil (Loveland Products, Loveland, Colo., USA) to obtain concentrated stock solutions at the highest application rate for each herbicide, based upon a 12 milliliter (mL) application volume at a rate of 187 liters per hectare (L/ha). The concentrated stock solutions were further diluted with an aqueous mixture of 1.25% v/v ACTIROB® B or MSO® Concentrate with LECI-TECH® to obtain stock solutions at reduced application rates for each herbicide. Spray solutions of the herbicide combinations (Compound A or Compound B plus the PGR) were prepared by adding weighed amounts or aliquots of the PGR to the stock solutions of Compound A or Compound B to form 12-mL spray solutions in two-way combinations.
(§3) The spray solutions were applied to the plant material with an overhead Mandel track sprayer equipped with 8002E nozzles calibrated to deliver 187 L/ha over an application area of 0.503 square meters (m^2) at a spray height of 18 inches (43 centimeters (cm)) above the average plant canopy. Control plants were sprayed in the same manner with the solvent blank. All pyridine carboxylate herbicide (component a) application rates are given as “g ae/ha” and all PGR (component b) application rates are given as “g ai/ha.”
(§4) The treated plants and control plants were placed in a greenhouse as described above and watered by sub-irrigation to prevent wash-off of the test compounds. After 20-22 d, the condition of the test plants as compared with that of the control plants was determined visually and scored on a scale of 0 to 100 percent where 0 corresponds to no injury and 100 corresponds to complete kill.

Glycine max (soybean) = assay: Greenhouse postemergence herbicidal effect on GLXMA
Excerpt: as §1, §2, §3, §4

[2] = test system: Amaranthus retroflexus (pigweed); assay: Greenhouse postemergence herbicidal effect on AMARE; conditions: for Herbicidal Effects (% visual injury) AMARE Obs: Ethephon 0 g/ha
Excerpt: as §1, §2, §3, §4

[3] = test system: Hordeum vulgare (spring barley)
Excerpt: as §1, §2, §3, §4

[4] = test system: Hordeum vulgare (winter barley)
Excerpt: as §1, §2, §3, §4

[5] = test system: Sorghum vulgare (grain sorghum); conditions: for Herbicidal Effects (% visual injury) SORVU Obs: Ethephon 0 g/ha
Excerpt: as §1, §2, §3, §4

[6] = test system: Triticum aestivum (spring wheat)
Excerpt: as §1, §2, §3, §4

[7] = test system: Triticum aestivum (winter wheat)
Excerpt: as §1, §2, §3, §4

Zea mays (maize) = conditions: for Herbicidal Effects (% visual injury) ZEAMX Obs: Ethephon 0 g/ha
Excerpt: as §1, §2, §3, §4

[8] = test system: Lamium purpureum (purple deadnettle); assay: Greenhouse postemergence herbicidal effect on LAMPU
Excerpt: as §1
(§5) Emulsifiable concentrates of each of each pyridine carboxylate herbicide (Compound A or Compound B) were prepared at 100 grams acid equivalent per liter (g ae/L). The emulsifiable concentrates also included a safener, cloquintocet-mexyl, at 120 grams active ingredient per liter (g ai/L). […]
as §4

[9] = test system: Capsella bursa-pastoris (shepherd's purse); assay: Greenhouse postemergence herbicidal effect on CAPBP
Excerpt: as §1, §5, §4

[10] = test system: Viola arvensis (field violet); assay: Greenhouse postemergence herbicidal effect on VIOAR
Excerpt: as §1, §5, §4

[11] = test system: Matricaria chamomilla (wild chamomile); assay: Greenhouse postemergence herbicidal effect on MATCH
Excerpt: as §1, §5, §4

[12] = test system: Veronica persica (Persian speedwell); assay: Greenhouse postemergence herbicidal effect on VERPE
Excerpt: as §1, §5, §4

[13] = test system: Cyperus esculentus (yellow nutsedge); assay: Greenhouse postemergence herbicidal effect on CYPES; conditions: Ethephon 0 g/ha
Excerpt: as §1, §5
as §4, with “kill. […]” for “kill.”

[14] = test system: Digitaria sanguinalis (large crabgrass); assay: Greenhouse postemergence herbicidal effect on DIGSA; conditions: Ethephon 0 g/ha
Excerpt: as §1, §5
as §4, with “kill. […]” for “kill.”

rice (ORYSA) = conditions: Ethephon 0 g/ha
Excerpt: as §1, §5
as §4, with “kill. […]” for “kill.”

## N#CCOC(=O)c1nc(-c2ccc3cc[nH]c3c2F)c(F)c(N)c1Cl [Compound A, cyanomethyl 4-amino-3-chloro-5-fluoro-6-(7-fluoro-1H-indol-6-yl)pyridine-2-carboxylate]
[1]; Compound A 7.5 g/ha
  Herbicidal Effects (% visual injury) EPHHL Obs: 100%
[1]; Compound A 10 g/ha
  Herbicidal Effects (% visual injury) EPHHL Obs: 100%
[1]; herbicide 7.5 g ae/ha alone
  % visual injury Obs: 91%
[1]; herbicide 10 g ae/ha alone
  % visual injury Obs: 83%
Glycine max (soybean); herbicide 7.5 g ae/ha alone
  % visual injury Obs: 100% and 80%
Glycine max (soybean); herbicide 10 g ae/ha alone
  % visual injury Obs: 99% and 90%
[2]; Compound A 7.5 g/ha
  Herbicidal Effects (% visual injury) AMARE Obs: 99%
[2]; Compound A 10 g/ha
  Herbicidal Effects (% visual injury) AMARE Obs: 100%
[2]; herbicide 7.5 g ae/ha alone
  % visual injury Obs: 80% and 88%
[2]; herbicide 10 g ae/ha alone
  % visual injury Obs: 85% and 88%
[3]; herbicide 7.5 g ae/ha alone
  % visual injury Obs: 0%
[3]; herbicide 10 g ae/ha alone
  % visual injury Obs: 0%
[3]; herbicide 15 g ae/ha alone
  % visual injury Obs: 0%
[4]; herbicide 7.5 g ae/ha alone
  % visual injury Obs: 0%
[4]; herbicide 10 g ae/ha alone
  % visual injury Obs: 0%
[4]; herbicide 15 g ae/ha alone
  % visual injury Obs: 0%
[5]; Compound A 7.5 g/ha
  Herbicidal Effects (% visual injury) SORVU Obs: 8%
[5]; Compound A 10 g/ha
  Herbicidal Effects (% visual injury) SORVU Obs: 8%
[5]; herbicide 7.5 g ae/ha alone
  % visual injury Obs: 0%
[5]; herbicide 10 g ae/ha alone
  % visual injury Obs: 0%
[6]; herbicide 7.5 g ae/ha alone
  % visual injury Obs: 0% and 5%
[6]; herbicide 10 g ae/ha alone
  % visual injury Obs: 0% and 3%
[6]; herbicide 15 g ae/ha alone
  % visual injury Obs: 0%
[7]; herbicide 7.5 g ae/ha alone
  % visual injury Obs: 0%
[7]; herbicide 10 g ae/ha alone
  % visual injury Obs: 0%
[7]; herbicide 15 g ae/ha alone
  % visual injury Obs: 0%
Zea mays (maize); Compound A 7.5 g/ha
  Herbicidal Effects (% visual injury) ZEAMX Obs: 0%
Zea mays (maize); Compound A 10 g/ha
  Herbicidal Effects (% visual injury) ZEAMX Obs: 5%
Zea mays (maize); herbicide 7.5 g ae/ha alone
  % visual injury Obs: 0%
Zea mays (maize); herbicide 10 g ae/ha alone
  % visual injury Obs: 0%
[8]; herbicide 7.5 g ae/ha alone
  % visual injury Obs: 68%
[8]; herbicide 10 g ae/ha alone
  % visual injury Obs: 73%
[8]; herbicide 15 g ae/ha alone
  % visual injury Obs: 73%
[9]; herbicide 7.5 g ae/ha alone
  % visual injury Obs: 45%
[9]; herbicide 10 g ae/ha alone
  % visual injury Obs: 55%
[9]; herbicide 15 g ae/ha alone
  % visual injury Obs: 55%
[10]; herbicide 7.5 g ae/ha alone
  % visual injury Obs: 10%
[10]; herbicide 10 g ae/ha alone
  % visual injury Obs: 13%
[10]; herbicide 15 g ae/ha alone
  % visual injury Obs: 10%
[11]; herbicide 7.5 g ae/ha alone
  % visual injury Obs: 23%
[11]; herbicide 10 g ae/ha alone
  % visual injury Obs: 35%
[11]; herbicide 15 g ae/ha alone
  % visual injury Obs: 45%
[12]; herbicide 7.5 g ae/ha alone
  % visual injury Obs: 78%
[12]; herbicide 10 g ae/ha alone
  % visual injury Obs: 90%
[12]; herbicide 15 g ae/ha alone
  % visual injury Obs: 93%
[13]; Compound A 7.5 g/ha
  Herbicidal Effects (% visual injury) CYPES Obs: 58%
[13]; Compound A 10 g/ha
  Herbicidal Effects (% visual injury) CYPES Obs: 38%
[14]; Compound A 7.5 g/ha
  Herbicidal Effects (% visual injury) DIGSA Obs: 10%
[14]; Compound A 10 g/ha
  Herbicidal Effects (% visual injury) DIGSA Obs: 10%
Rice (ORYSA); Compound A 7.5 g/ha
  Herbicidal Effects (% visual injury) ORYSA Obs: 15%
Rice (ORYSA); Compound A 10 g/ha
  Herbicidal Effects (% visual injury) ORYSA Obs: 18%

Source: US20210392890A1, “COMPOSITIONS COMPRISING PYRIDINE CARBOXYLATE HERBICIDES AND PLANT GROWTH REGULATORS” (Corteva Agriscience LLC, priority 2018, published 2021)
